From PubChem BioAssay AID1982 (Sanford-Burnham Center for Chemical Genomics, 2009)
Calls of active or inactive are those of the source. No rule for the calls is given here.

What was measured:
Assay in all cases: kinase panel binding selectivity, selectivity assay, biochemical, KINOMEscan (AID 1982)
[1] = target: Cyclin-dependent kinase 7 (Homo sapiens) (UniProt P50613); conditions: KINOMEscan 353-kinase binding panel, qPCR; CDK7; at 10 µM; stronger effect = lower value
[2] = system: DLK; conditions: KINOMEscan 353-kinase binding panel, qPCR, at 10 µM, stronger effect = lower value
[3] = system: AAK1; conditions: KINOMEscan 353-kinase binding panel, qPCR, at 10 µM, stronger effect = lower value
[4] = target: Mitogen-activated protein kinase kinase kinase kinase 4 (Homo sapiens) (UniProt O95819); conditions: KINOMEscan 353-kinase binding panel, qPCR; MAP4K4; at 10 µM; stronger effect = lower value
[5] = target: Calcium/calmodulin-dependent protein kinase type 1D (Homo sapiens) (UniProt Q8IU85); conditions: KINOMEscan 353-kinase binding panel, qPCR; CAMK1D; at 10 µM; stronger effect = lower value
[6] = system: EPHA6; conditions: KINOMEscan 353-kinase binding panel, qPCR, at 10 µM, stronger effect = lower value
[7] = target: Tyrosine-protein kinase JAK2 (Homo sapiens) (UniProt O60674); conditions: KINOMEscan 353-kinase binding panel, qPCR; JAK2(Kin.Dom.2); at 10 µM; stronger effect = lower value
[8] = target: Serine/threonine-protein kinase 17A (Homo sapiens) (UniProt Q9UEE5); conditions: KINOMEscan 353-kinase binding panel, qPCR; DRAK1; at 10 µM; stronger effect = lower value
Chain of Serine/threonine-protein kinase 17A (Homo sapiens) (Q9UEE5 whole entry, looked up): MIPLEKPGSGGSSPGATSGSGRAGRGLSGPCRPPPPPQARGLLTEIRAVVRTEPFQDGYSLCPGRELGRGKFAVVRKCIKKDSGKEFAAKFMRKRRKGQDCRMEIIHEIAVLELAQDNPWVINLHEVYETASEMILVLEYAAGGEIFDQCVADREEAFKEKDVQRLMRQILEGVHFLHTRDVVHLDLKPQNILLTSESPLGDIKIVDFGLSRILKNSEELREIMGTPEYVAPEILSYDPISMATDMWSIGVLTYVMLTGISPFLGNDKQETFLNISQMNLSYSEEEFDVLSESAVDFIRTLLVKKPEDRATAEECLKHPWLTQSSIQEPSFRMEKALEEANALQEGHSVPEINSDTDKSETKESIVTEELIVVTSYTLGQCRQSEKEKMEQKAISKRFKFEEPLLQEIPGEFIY

[9] = system: EPHA1; conditions: KINOMEscan 353-kinase binding panel, qPCR, at 10 µM, stronger effect = lower value
[10] = system: ACVR2B; conditions: KINOMEscan 353-kinase binding panel, qPCR, at 10 µM, stronger effect = lower value
[11] = target: Testis-specific serine/threonine-protein kinase 1 (Homo sapiens) (UniProt Q9BXA7); conditions: KINOMEscan 353-kinase binding panel, qPCR; TSSK1; at 10 µM; stronger effect = lower value
[12] = target: Serine/threonine-protein kinase TAO1 (Homo sapiens) (UniProt Q7L7X3); conditions: KINOMEscan 353-kinase binding panel, qPCR; TAOK1; at 10 µM; stronger effect = lower value
Chain of Serine/threonine-protein kinase TAO1 (Homo sapiens) (Q7L7X3 whole entry, looked up): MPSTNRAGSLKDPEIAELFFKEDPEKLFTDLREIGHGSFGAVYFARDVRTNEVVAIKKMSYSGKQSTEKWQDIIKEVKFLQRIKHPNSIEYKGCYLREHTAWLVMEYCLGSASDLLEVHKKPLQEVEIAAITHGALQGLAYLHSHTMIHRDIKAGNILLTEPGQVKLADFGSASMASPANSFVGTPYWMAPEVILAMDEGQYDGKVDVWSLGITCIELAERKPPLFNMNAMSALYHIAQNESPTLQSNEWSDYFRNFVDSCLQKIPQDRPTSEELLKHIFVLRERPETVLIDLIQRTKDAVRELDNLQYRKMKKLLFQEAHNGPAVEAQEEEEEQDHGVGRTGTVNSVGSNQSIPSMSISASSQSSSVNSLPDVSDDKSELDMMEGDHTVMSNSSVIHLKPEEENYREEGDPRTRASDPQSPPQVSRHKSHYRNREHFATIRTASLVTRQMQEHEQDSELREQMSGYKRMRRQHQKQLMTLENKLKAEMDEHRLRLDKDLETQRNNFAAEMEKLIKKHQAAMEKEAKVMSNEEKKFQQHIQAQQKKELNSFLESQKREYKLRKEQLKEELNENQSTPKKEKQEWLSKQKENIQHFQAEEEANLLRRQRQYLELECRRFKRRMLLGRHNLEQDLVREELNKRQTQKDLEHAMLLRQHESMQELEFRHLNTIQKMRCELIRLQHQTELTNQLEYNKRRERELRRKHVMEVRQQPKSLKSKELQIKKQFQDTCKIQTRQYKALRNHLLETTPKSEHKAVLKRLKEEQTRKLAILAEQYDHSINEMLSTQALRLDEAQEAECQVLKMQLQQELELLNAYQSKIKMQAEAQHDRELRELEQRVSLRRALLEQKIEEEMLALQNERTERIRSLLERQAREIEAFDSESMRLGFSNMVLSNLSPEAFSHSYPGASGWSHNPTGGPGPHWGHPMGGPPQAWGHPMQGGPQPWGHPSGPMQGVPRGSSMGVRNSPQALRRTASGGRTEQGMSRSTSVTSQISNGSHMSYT

[13] = target: Misshapen-like kinase 1 (Homo sapiens) (UniProt Q8N4C8); conditions: KINOMEscan 353-kinase binding panel, qPCR; MINK; at 10 µM; stronger effect = lower value
[14] = target: Serine/threonine-protein kinase PAK 6 (Homo sapiens) (UniProt Q9NQU5); conditions: KINOMEscan 353-kinase binding panel, qPCR; PAK6; at 10 µM; stronger effect = lower value
Chain of Serine/threonine-protein kinase PAK 6 (Homo sapiens) (Q9NQU5 whole entry, looked up): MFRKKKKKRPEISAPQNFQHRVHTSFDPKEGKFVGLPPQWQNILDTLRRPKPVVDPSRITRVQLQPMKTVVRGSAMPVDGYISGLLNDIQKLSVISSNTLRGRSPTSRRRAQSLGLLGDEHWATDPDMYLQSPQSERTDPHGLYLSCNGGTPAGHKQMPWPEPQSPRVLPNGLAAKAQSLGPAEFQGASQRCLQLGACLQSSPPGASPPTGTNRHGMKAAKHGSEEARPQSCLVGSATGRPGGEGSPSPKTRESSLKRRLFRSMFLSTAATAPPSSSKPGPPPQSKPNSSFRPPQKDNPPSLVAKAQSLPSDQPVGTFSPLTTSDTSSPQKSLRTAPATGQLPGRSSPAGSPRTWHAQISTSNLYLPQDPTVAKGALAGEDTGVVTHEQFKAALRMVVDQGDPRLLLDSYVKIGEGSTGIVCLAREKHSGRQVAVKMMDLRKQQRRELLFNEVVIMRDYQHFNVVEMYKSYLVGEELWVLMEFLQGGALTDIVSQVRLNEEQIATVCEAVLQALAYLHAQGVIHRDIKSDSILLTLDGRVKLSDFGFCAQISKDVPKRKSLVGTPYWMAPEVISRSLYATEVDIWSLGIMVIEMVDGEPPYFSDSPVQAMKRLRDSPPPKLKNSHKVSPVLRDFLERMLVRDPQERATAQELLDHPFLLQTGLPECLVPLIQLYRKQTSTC

[15] = target: Serine/threonine-protein kinase D2 (Homo sapiens) (UniProt Q9BZL6); conditions: KINOMEscan 353-kinase binding panel, qPCR; PRKD2; at 10 µM; stronger effect = lower value
[16] = target: Calcium/calmodulin-dependent protein kinase kinase 2 (Homo sapiens) (UniProt Q96RR4); conditions: KINOMEscan 353-kinase binding panel, qPCR; CAMKK2; at 10 µM; stronger effect = lower value
[17] = target: Serine/threonine-protein kinase 33 (Homo sapiens) (UniProt Q9BYT3); conditions: KINOMEscan 353-kinase binding panel, qPCR; STK33; at 10 µM; stronger effect = lower value
Chain of Serine/threonine-protein kinase 33 (Homo sapiens) (Q9BYT3 whole entry, looked up): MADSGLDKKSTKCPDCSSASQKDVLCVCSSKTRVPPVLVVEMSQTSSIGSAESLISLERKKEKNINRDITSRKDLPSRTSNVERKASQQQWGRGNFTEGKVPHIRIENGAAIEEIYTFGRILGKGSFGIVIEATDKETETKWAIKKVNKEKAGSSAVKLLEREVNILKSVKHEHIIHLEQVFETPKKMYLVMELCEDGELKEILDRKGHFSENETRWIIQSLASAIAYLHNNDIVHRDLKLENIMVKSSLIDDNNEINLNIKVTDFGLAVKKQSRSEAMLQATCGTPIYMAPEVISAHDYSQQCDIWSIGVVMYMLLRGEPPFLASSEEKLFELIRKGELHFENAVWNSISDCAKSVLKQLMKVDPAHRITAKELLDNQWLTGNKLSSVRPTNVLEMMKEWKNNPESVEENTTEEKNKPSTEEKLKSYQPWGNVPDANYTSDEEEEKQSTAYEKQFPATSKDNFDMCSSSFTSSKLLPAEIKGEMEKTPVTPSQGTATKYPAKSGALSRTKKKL

[18] = system: PIK3CG; conditions: KINOMEscan 353-kinase binding panel, qPCR, at 10 µM, stronger effect = lower value
[19] = target: Casein kinase I isoform gamma-3 (Homo sapiens) (UniProt Q9Y6M4); conditions: KINOMEscan 353-kinase binding panel, qPCR; CSNK1G3; at 10 µM; stronger effect = lower value
[20] = system: PRKCH; conditions: KINOMEscan 353-kinase binding panel, qPCR, at 10 µM, stronger effect = lower value
[21] = system: STK35; conditions: KINOMEscan 353-kinase binding panel, qPCR, at 10 µM, stronger effect = lower value
[22] = system: EPHA4; conditions: KINOMEscan 353-kinase binding panel, qPCR, at 10 µM, stronger effect = lower value
[23] = system: RPS6KA1(Kin.Dom.1); conditions: KINOMEscan 353-kinase binding panel, qPCR, at 10 µM, stronger effect = lower value
[24] = system: CSNK2A2; conditions: KINOMEscan 353-kinase binding panel, qPCR, at 10 µM, stronger effect = lower value
[25] = target: Serine/threonine-protein kinase B-raf (Homo sapiens) (UniProt P15056); conditions: KINOMEscan 353-kinase binding panel, qPCR, at 10 µM, stronger effect = lower value
Chain of Serine/threonine-protein kinase B-raf (Homo sapiens) (P15056 whole entry, looked up): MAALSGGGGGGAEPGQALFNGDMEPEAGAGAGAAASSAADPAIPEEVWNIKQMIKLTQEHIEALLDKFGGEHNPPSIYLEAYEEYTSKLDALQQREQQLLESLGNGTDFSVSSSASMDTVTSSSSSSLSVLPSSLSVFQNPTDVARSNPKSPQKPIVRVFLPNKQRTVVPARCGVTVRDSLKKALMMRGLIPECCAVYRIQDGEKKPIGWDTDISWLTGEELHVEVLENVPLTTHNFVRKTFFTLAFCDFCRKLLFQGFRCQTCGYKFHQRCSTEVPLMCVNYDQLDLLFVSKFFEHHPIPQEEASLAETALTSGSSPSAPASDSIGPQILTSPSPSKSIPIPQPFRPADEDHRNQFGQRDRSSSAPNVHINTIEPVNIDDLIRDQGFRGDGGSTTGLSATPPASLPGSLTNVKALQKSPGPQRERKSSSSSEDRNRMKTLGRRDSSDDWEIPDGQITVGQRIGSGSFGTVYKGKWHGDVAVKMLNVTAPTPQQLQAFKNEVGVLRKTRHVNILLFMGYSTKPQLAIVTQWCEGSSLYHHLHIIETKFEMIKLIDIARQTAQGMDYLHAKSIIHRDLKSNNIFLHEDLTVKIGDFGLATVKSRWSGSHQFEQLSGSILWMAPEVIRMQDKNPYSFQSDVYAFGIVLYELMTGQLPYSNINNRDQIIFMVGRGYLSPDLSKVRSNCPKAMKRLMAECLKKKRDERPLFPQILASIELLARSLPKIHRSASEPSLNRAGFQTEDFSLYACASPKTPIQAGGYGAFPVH

[26] = target: Dual specificity protein kinase CLK1 (Homo sapiens) (UniProt P49759); conditions: KINOMEscan 353-kinase binding panel, qPCR, at 10 µM, stronger effect = lower value
[27] = system: ULK1; conditions: KINOMEscan 353-kinase binding panel, qPCR, at 10 µM, stronger effect = lower value
[28] = system: SNF1LK; conditions: KINOMEscan 353-kinase binding panel, qPCR, at 10 µM, stronger effect = lower value
[29] = target: Tyrosine-protein kinase ABL1 (Homo sapiens) (UniProt P00519); conditions: KINOMEscan 353-kinase binding panel, qPCR, at 10 µM, stronger effect = lower value
Chain of Tyrosine-protein kinase ABL1 (Homo sapiens) (P00519 whole entry, looked up): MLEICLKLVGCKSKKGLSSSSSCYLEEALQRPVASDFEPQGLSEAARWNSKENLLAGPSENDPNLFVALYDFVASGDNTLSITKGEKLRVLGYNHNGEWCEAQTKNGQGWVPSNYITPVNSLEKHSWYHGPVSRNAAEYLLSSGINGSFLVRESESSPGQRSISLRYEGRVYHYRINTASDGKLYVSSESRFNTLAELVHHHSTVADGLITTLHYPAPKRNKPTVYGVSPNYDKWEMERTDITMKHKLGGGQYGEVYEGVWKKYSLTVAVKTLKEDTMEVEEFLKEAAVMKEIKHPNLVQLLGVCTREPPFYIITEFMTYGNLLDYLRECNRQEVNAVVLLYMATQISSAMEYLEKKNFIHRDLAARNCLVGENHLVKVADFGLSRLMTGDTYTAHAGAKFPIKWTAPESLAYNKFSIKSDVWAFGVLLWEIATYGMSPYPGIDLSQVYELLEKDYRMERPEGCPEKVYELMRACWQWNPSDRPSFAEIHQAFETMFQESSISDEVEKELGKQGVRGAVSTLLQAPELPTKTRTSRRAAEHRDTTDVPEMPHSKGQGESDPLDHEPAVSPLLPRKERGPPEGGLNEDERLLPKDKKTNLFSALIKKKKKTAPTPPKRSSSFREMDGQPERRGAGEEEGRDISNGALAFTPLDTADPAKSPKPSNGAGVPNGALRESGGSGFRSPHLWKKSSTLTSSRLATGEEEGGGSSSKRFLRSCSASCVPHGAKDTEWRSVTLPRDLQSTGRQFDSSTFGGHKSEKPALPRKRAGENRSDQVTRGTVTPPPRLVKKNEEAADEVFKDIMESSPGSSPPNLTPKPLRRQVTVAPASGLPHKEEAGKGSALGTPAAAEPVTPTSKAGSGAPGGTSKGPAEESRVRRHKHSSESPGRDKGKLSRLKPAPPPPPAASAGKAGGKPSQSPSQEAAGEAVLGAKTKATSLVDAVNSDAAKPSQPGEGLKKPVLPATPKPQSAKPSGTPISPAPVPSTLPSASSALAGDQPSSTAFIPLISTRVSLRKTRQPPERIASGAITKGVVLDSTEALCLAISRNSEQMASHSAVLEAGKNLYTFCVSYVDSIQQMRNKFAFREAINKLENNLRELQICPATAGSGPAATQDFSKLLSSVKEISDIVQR

[30] = target: Serine/threonine-protein kinase N2 (Homo sapiens) (UniProt Q16513); conditions: KINOMEscan 353-kinase binding panel, qPCR; PKN2; at 10 µM; stronger effect = lower value
[31] = system: PIK3C2B; conditions: KINOMEscan 353-kinase binding panel, qPCR, at 10 µM, stronger effect = lower value

Measured: percent of control binding

Chain of Cyclin-dependent kinase 7 (Homo sapiens) (P50613 whole entry, looked up): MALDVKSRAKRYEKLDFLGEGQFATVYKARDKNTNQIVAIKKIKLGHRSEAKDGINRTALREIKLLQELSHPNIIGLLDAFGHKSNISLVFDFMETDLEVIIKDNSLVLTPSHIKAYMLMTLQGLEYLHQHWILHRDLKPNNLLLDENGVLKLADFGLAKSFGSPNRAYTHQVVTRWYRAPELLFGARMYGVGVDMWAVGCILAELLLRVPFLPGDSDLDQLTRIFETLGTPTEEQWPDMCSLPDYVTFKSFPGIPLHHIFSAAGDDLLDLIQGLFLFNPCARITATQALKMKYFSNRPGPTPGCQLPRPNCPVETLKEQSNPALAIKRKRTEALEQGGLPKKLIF

Cc1cc2nc(NCCCO)n(CC(=O)c3cc(C(C)(C)C)c(O)c(C(C)(C)C)c3)c2cc1C
inactive: [1] 64% | [2] 82% | [3] 100% | [4] 66% | [5] 100% | [6] 93% | [7] 47% | [8] 89% | [9] 100% | [10] 100% | [11] 100% | [12] 90% | [13] 100% | [14] 76% | [15] 91% | [16] 100% | [17] 98% | [18] 86% | [19] 100% | [20] 100% | [21] 100% | [22] 86% | [23] 59% | [24] 98% | [25]; BRAF(V600E) 70% | [25]; BRAF 88% | [26] 98% | [27] 100% | [28] 100% | [29] 100% | [29]; ABL1(E255K) 94% | [29]; ABL1(F317I) 100% | [29]; ABL1(F317L) 92% | [29]; ABL1(H396P) 98% | [29]; ABL1(M351T) 100% | [29]; ABL1(Q252H) 100% | [29]; ABL1(T315I) 86% | [29]; ABL1(Y253F) 100% | [30] 100% | [31] 90%
